pIC50: −log10 of the molar value.
Experiments:
[1] = biological target: T1, Cytochrome P450 11B2, mitochondrial (Rattus norvegicus, UniProt P30099); assay: Inhibition of rat CYP11B2 using [3H]-11-deoxycorticosterone as substrate at 0.5 uM incubated for 1 hr prior to substrate addition measured after 7 hrs by HPLC analysis; conditions: read-out: INH
T1 sequence (P30099 whole entry): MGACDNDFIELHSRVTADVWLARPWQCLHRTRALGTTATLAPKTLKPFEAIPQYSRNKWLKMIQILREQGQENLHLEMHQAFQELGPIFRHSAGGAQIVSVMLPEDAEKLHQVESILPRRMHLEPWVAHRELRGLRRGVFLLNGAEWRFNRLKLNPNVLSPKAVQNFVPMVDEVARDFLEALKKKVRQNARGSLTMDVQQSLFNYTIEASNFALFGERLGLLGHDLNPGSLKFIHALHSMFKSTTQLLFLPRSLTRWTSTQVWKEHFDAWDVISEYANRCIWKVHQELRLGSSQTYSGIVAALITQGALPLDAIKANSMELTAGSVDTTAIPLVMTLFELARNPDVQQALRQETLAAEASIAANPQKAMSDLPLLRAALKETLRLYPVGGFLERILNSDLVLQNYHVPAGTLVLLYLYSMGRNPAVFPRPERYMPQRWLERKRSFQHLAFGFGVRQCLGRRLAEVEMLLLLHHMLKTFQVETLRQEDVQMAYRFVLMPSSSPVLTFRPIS

[2] = biological target: T1, Cytochrome P450 11B2, mitochondrial; assay: Inhibition of rat CYP11B2 using [3H]-11-deoxycorticosterone as substrate at 2 uM incubated for 1 hr prior to substrate addition measured after 7 hrs by HPLC analysis
CYP17 = biological target: T2, CYP17 (Homo sapiens, UniProt P05093); assay: Inhibition of human recombinant CYP17 expressed in Escherichia coli using progesterone as substrate at 2 uM; conditions: probe progesterone
T2 sequence (P05093 whole entry): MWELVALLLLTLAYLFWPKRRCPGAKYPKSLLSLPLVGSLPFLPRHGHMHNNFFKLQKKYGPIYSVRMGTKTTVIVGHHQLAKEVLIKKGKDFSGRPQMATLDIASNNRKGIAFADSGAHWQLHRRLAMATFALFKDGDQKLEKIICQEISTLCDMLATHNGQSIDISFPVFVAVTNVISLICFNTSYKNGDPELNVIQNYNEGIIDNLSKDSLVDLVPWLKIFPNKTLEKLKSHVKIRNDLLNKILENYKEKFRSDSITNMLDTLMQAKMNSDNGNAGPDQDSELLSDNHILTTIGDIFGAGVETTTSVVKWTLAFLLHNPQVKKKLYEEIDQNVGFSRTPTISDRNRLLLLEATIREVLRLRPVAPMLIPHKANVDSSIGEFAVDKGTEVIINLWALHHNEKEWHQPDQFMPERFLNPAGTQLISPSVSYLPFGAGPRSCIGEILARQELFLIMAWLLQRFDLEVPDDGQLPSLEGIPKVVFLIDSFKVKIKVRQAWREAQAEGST

CYP11B1 = biological target: T3, CYP11B1 (Homo sapiens, UniProt P15538); assay: (§1) Inhibition of CYP11B1 […] cells using [3H]-11-deoxycorticosterone as substrate incubated for 1 hr prior to substrate addition measured after 25 mins by HPLC analysis; assay type: cell-based; conditions: human, V79MZ cells expressing CYP11B1, probe [3H]-11-deoxycorticosterone
T3 sequence (P15538 whole entry): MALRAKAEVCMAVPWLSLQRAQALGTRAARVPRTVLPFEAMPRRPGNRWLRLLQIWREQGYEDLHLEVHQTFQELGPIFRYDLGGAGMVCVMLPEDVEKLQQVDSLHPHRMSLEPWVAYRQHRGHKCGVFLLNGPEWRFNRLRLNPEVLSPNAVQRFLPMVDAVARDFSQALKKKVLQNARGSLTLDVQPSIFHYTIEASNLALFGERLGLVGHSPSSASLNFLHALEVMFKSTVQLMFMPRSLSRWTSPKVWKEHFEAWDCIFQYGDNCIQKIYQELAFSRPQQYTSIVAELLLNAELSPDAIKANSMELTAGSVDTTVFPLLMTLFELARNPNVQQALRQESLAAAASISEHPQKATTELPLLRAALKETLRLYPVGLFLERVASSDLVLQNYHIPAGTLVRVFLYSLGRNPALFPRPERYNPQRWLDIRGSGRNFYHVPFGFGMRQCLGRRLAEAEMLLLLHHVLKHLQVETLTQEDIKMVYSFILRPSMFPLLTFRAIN

CYP19 (aromatase) = biological target: T4, CYP19 (aromatase) (Homo sapiens, UniProt P11511); assay: Inhibition of human recombinant CYP19 using [1beta-3H]androstenedione as substrate at 500 nM; conditions: recombinant CYP19, probe [1beta-3H]androstenedione
T4 sequence (P11511 whole entry): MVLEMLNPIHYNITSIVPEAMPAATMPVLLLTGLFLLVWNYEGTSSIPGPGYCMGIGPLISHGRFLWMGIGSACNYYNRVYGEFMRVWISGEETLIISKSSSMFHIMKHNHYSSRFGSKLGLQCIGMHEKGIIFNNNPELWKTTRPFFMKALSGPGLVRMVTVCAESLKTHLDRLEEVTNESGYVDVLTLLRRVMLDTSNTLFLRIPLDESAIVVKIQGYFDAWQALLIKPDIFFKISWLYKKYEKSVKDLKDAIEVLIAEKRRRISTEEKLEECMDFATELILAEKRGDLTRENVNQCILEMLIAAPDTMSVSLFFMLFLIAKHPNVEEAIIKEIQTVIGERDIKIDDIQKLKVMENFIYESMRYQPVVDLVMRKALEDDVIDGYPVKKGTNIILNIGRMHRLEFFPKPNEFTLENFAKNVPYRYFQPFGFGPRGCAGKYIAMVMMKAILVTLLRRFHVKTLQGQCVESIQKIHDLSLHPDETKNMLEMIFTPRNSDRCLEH

[3] = biological target: T5, Cytochrome P450 11B2, mitochondrial (Homo sapiens, UniProt P19099); assay: Inhibition of CYP11B2 […] cells using [3H]-11-deoxycorticosterone as substrate incubated for 1 hr prior to substrate addition measured after 45 mins by HPLC analysis; assay type: cell-based
T5 sequence (P19099 whole entry): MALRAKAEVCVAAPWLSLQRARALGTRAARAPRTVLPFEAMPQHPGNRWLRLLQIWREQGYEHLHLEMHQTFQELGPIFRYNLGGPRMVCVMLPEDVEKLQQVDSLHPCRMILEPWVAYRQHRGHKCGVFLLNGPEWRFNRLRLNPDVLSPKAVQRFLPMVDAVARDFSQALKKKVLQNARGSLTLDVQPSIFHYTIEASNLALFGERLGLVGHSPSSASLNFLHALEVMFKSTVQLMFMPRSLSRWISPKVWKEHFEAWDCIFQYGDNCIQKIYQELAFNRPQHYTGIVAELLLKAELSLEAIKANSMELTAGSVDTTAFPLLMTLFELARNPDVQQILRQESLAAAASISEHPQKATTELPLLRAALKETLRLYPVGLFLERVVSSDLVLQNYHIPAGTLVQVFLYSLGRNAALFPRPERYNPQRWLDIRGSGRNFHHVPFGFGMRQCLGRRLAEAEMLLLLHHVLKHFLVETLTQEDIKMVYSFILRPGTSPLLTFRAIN

[4] = biological target: T5, Cytochrome P450 11B2, mitochondrial; assay: Inhibition of CYP11B2 […] cells using [3H]-11-deoxycorticosterone as substrate at 500 nM incubated for 1 hr prior to substrate addition measured after 45 mins by HPLC analysis; assay type: cell-based; conditions: 0.75 h
[5] = biological target: T6, Cytochrome P450 11B1, mitochondrial (Homo sapiens, UniProt P15538); assay: as §1; assay type: cell-based
T6 sequence (P15538 whole entry): T3 sequence (P15538 whole entry)

| inhibition at 0.5 µM [1] [%] | inhibition at 2 µM [2] [%] | inhibition at 2 µM (CYP17) [%] | IC50 at 25 min (CYP11B1) [nM] | inhibition at 0.5 µM (CYP19 (aromatase)) [%] | pIC50 [3] | inhibition at 0.5 µM [4] [%] | pIC50 [5] | Structure (SMILES) |
| --- | --- | --- | --- | --- | --- | --- | --- | --- |
| 67 | – | – | – | – | – | – | – | N#Cc1ccc(C2CCCc3cncn32)cc1 (stereo unspecified) [FADROZOLE] |
| – | < 5 | 20 | 6750 | 31 | 7.55 | – | – | O=C1CCc2cc(-c3cccnc3)ccc2N1 |
| – | – | – | 525 | – | 7.92 | – | – | O=C1CSc2cc(-c3cccnc3)ccc2N1 |
| – | – | – | – | – | 6.64 | 72 | 6.92 | O=C1NCc2cc(-c3cccnc3)ccc2N1 |
| – | – | < 10 | – | 20 | 7.96 | 98 | 6.11 | CN1C(=O)COc2cc(-c3cccnc3)ccc21 |

Source: ChEMBL document CHEMBL3396957, “Heteroatom insertion into 3,4-dihydro-1H-quinolin-2-ones leads to potent and selective inhibitors of human and rat aldosterone synthase” (Eur J Med Chem, 2015)
